Results on seven compounds are retold here after ChEMBL document CHEMBL4813924, “Isolation and Pharmacological Characterization of Six Opioidergic Picralima nitida Alkaloids” (J Nat Prod, 2021).

The Ki is a measure of affinity in units of concentration, obtained from inhibition or displacement. A word on the inhibition: it is the share of the control response that was lost under treatment. What is called EC50 is the midpoint of the concentration-response curve.

The structures appear in SMILES notation. The source made the active and inactive calls. No cut-off for these calls is given here.

Test [1] relates to Mus musculus. As to the kind of experiment: Antinociceptive activity against C57Bl/6N mouse model of thermal-induced nociception at 6 mg/kg, sc measured at 30 mins by tail-flick test. It counts as functional, organism-based. For orientation: In hot-plate and tail-flick tests a longer latency is read as antinociception.
In test [2] the test system is Mus musculus. The test is described as follows: Antinociceptive activity against C57Bl/6N mouse model of thermal-induced nociception at 6 mg/kg, sc measured at 30 mins by hot-plate test. It counts as functional, organism-based.
The target in test [3] is T1, Mu-type opioid receptor (Homo sapiens, UniProt P35372). The test is described as follows: Displacement of [3H]-DAMGO from human mu opioid receptor expressed in CHO-K1 cells by radioligand binding assay. The test is classed as cell-based. Background: In a radioligand displacement assay an active substance lowers the binding of a labelled ligand.
T1 sequence (P35372 whole entry): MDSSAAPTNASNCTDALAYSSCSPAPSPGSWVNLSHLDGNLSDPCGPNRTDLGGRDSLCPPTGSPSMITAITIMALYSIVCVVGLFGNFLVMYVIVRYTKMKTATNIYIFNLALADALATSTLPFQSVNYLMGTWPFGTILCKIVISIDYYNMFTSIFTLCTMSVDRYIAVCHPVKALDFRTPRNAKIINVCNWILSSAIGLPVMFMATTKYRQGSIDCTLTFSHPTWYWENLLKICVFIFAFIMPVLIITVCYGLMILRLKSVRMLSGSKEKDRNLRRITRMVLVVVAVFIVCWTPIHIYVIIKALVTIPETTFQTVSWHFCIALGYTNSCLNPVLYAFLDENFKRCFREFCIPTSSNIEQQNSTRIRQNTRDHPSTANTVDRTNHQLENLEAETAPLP
For test [4], the target named is T2, Kappa-type opioid receptor (Homo sapiens, UniProt P41145). As to the kind of experiment: Displacement of [3H]-U69593 from human kappa opioid receptor expressed in U2OS cells by radioligand binding assay. The test is classed as cell-based.
T2 sequence (P41145 whole entry): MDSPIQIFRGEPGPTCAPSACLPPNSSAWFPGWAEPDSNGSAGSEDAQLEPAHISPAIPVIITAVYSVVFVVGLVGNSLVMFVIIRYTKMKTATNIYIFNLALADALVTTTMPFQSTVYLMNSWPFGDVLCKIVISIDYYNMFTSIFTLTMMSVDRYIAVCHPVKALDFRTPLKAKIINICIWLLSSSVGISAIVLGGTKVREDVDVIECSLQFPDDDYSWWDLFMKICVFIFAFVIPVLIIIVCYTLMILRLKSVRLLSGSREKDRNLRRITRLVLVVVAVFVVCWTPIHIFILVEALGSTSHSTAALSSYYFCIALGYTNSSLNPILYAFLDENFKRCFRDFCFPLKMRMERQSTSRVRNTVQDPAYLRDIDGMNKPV
The target of test [5] is T3, Delta-type opioid receptor (Homo sapiens, UniProt P41143). The test is described as follows: Displacement of [3H]-DPDPE from human delta opioid receptor expressed in CHO-K1 cells by radioligand binding assay. It counts as cell-based.
T3 sequence (P41143 whole entry): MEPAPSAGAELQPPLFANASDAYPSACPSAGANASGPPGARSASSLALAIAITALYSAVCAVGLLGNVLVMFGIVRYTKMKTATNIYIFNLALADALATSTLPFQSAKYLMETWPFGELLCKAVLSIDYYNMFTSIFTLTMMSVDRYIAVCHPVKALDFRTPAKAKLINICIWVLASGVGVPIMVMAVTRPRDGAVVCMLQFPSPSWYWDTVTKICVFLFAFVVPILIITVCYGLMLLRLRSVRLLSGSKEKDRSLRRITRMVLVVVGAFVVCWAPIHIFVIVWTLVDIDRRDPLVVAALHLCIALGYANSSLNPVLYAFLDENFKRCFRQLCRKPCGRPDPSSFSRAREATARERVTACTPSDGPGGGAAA
Test [6] concerns the target Mu-type opioid receptor (Mus musculus, UniProt P42866). As to the kind of experiment: Agonist activity at mouse HA-tagged mu opioid receptor expressed in HEK293 cells assessed as inhibition of forskolin-induced cAMP production preincubated for 20 mins followed by forskolin stimulation and measured after 15 mins by Glo-sensor reagent based assay. The test is classed as functional, cell-based.

In test [7] the target is Delta-type opioid receptor (Mus musculus, UniProt P32300). As to the kind of experiment: Agonist activity at mouse FLAG-tagged delta opioid receptor expressed in HEK293 cells assessed as inhibition of forskolin-induced cAMP production preincubated for 20 mins followed by forskolin stimulation and measured after 15 mins by Glo-sensor reagent based assay. The test is classed as functional, cell-based. A general note: cAMP levels reflect the balance of adenylyl cyclase and phosphodiesterase activity.
Sequence of Delta-type opioid receptor (Mus musculus, UniProt P32300) (P32300 whole entry): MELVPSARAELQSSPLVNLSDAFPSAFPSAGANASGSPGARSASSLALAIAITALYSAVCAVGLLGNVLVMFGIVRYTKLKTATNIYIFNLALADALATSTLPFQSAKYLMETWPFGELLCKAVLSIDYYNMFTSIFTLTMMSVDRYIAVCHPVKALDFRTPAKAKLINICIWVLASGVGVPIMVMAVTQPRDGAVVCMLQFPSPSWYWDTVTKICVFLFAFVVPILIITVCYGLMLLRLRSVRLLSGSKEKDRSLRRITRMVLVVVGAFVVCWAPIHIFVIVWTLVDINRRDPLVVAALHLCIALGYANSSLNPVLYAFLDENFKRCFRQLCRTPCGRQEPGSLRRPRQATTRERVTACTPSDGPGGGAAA

Test [8] relates to Mus musculus. As to the kind of experiment: Antinociceptive activity against C57Bl/6N mouse model of thermal-induced nociception at 3 mg/kg, sc measured at 110 mins by hot-plate test. It counts as functional, organism-based.
Test [9] deals with Mus musculus. The test is described as follows: Antinociceptive activity against C57Bl/6N mouse model of thermal-induced nociception at 10 mg/kg, sc measured at 50 mins by tail-flick test. The test is classed as functional, organism-based.
Test [10] relates to Mus musculus. As to the kind of experiment: Antinociceptive activity against C57Bl/6N mouse model of thermal-induced nociception at 30 mg/kg, sc measured at 30 mins by tail-flick test. It counts as functional, organism-based.
Test [11] has as its target Mu-type opioid receptor (Mus musculus) (UniProt P42866). The test is described as follows: Agonist activity at mouse HA-tagged mu opioid receptor expressed in HEK293 cells assessed as inhibition of forskolin-induced cAMP production preincubated for 20 mins followed by forskolin stimulation and measured after 15 mins by Glo-sensor reagent based assay relative to DAMGO. It counts as functional, cell-based. The settings on record: filed as agonist. The arrangement: scale not given: the % may be the effect or the level left.

In test [12] the target is Delta-type opioid receptor (Mus musculus) (UniProt P32300). The test is described as follows: Agonist activity at mouse FLAG-tagged delta opioid receptor expressed in HEK293 cells assessed as inhibition of forskolin-induced cAMP production preincubated for 20 mins followed by forskolin stimulation and measured after 15 mins by Glo-sensor reagent based assay relative to Leu-Enk. The test is classed as functional, cell-based. The arrangement: scale not given: the % may be the effect or the level left. The note with it: filed as agonist.
Sequence of Delta-type opioid receptor (Mus musculus) (P32300 whole entry): as above

The target of test [13] is T4, D(1B) dopamine receptor (Homo sapiens, UniProt P21918). As to the kind of experiment: Displacement of [3H]-SCH23390 from dopamine D5 receptor (unknown origin) expressed in HEK-293T cells at 10 uM. The test is classed as cell-based.
T4 sequence (P21918 whole entry): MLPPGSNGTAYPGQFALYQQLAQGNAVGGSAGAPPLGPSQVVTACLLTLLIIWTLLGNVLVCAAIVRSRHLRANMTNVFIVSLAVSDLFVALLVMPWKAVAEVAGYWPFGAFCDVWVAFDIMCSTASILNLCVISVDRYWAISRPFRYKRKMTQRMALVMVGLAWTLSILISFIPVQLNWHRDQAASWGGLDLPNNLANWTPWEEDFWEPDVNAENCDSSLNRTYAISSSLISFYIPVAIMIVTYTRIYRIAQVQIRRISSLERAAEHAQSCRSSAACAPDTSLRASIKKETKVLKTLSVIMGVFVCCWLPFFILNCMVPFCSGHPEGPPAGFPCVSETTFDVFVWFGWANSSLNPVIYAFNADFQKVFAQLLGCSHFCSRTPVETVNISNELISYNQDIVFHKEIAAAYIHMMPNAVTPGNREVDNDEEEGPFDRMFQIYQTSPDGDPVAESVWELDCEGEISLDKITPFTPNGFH
Test [14] has as its target Sodium-dependent serotonin transporter (Homo sapiens) (UniProt P31645). As to the kind of experiment: Displacement of [3H]-citalopram from SERT (unknown origin) expressed in HEK cells at 10 uM relative to control. The test is classed as cell-based.
The target in test [15] is Histamine H3 receptor (Homo sapiens) (UniProt Q9Y5N1). The test is described as follows: Displacement of [3H]-alpha-methylhistamine from histamine H3 receptor (unknown origin) expressed in Flp-In-293 cells at 10 uM relative to control. The test is classed as cell-based.
Sequence of Histamine H3 receptor (Homo sapiens) (Q9Y5N1 whole entry): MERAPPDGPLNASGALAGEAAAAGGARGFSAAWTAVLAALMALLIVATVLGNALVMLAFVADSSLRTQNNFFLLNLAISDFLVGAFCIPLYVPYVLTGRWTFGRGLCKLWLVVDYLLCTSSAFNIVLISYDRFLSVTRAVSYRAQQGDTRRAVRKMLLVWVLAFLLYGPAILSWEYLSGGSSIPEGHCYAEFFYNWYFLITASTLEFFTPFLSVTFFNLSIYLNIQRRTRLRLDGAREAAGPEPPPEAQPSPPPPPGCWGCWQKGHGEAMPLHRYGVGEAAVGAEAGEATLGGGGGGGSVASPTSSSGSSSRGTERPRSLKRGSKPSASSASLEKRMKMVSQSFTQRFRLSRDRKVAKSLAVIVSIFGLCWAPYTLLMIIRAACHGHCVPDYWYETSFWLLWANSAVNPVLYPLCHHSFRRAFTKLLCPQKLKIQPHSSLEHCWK
The target in test [16] is T2, Kappa-type opioid receptor. As to the kind of experiment: Displacement of [3H]-U69593 from kappa opioid receptor (unknown origin) expressed in HEK cells at 10 uM. The settings on record: filed as agonist. It counts as cell-based.
The target in test [17] is T3, Delta-type opioid receptor. The test is described as follows: Displacement of [3H]-DADLE from delta opioid receptor (unknown origin) expressed in HEK cells at 10 uM. It counts as cell-based. The note with it: filed as agonist.
Test [18] has as its target T1, Mu-type opioid receptor. As to the kind of experiment: Displacement of [3H]-DAMGO from mu opioid receptor (unknown origin) expressed in HEK cells at 10 uM. It counts as cell-based.
Test [19] addresses T4, D(1B) dopamine receptor. The test is described as follows: Displacement of [3H]-SCH23390 from dopamine D5 receptor (unknown origin) expressed in HEK-293T cells assessed as inhibition constant. The test is classed as cell-based.
The target in test [20] is Kappa-type opioid receptor (Mus musculus, UniProt P33534). As to the kind of experiment: Agonist activity at mouse FLAG-tagged kappa opioid receptor expressed in HEK293 cells assessed as inhibition of forskolin-induced cAMP production preincubated for 20 mins followed by forskolin stimulation and measured after 15 mins by Glo-sensor reagent based assay. The test is classed as functional, cell-based.
Sequence of Kappa-type opioid receptor (Mus musculus, UniProt P33534) (P33534 whole entry): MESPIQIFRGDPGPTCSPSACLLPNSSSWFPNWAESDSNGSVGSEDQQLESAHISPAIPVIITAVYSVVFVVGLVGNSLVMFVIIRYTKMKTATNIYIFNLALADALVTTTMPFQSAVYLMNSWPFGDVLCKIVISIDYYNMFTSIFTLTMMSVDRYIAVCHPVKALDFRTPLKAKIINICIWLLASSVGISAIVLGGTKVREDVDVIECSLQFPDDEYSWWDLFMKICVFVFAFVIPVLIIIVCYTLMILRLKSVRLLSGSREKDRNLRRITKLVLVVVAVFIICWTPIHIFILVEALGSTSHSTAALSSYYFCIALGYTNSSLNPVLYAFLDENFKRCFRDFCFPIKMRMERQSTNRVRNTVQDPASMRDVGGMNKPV

The target in test [21] is T2, Kappa-type opioid receptor. As to the kind of experiment: Agonist activity at human kappa opioid receptor expressed in U2OS cells assessed as beta-arrestin2 recruitment incubated for 90 mins by PathHunter assay. It counts as functional, cell-based.
In test [22] the target is Kappa-type opioid receptor (Mus musculus) (UniProt P33534). As to the kind of experiment: Agonist activity at mouse FLAG-tagged kappa opioid receptor expressed in HEK293 cells assessed as inhibition of forskolin-induced cAMP production preincubated for 20 mins followed by forskolin stimulation and measured after 15 mins by Glo-sensor reagent based assay relative to U50488. The test is classed as functional, cell-based. The arrangement: scale not given: the % may be the effect or the level left. The settings on record: filed as agonist.
Sequence of Kappa-type opioid receptor (Mus musculus) (P33534 whole entry): as above

Test [23] has as its target T2, Kappa-type opioid receptor. As to the kind of experiment: Agonist activity at human kappa opioid receptor expressed in U2OS cells assessed as beta-arrestin2 recruitment incubated for 90 mins by PathHunter assay relative to U50488. The test is classed as functional, cell-based.

Sequence of Sodium-dependent serotonin transporter (Homo sapiens) (P31645 whole entry, looked up): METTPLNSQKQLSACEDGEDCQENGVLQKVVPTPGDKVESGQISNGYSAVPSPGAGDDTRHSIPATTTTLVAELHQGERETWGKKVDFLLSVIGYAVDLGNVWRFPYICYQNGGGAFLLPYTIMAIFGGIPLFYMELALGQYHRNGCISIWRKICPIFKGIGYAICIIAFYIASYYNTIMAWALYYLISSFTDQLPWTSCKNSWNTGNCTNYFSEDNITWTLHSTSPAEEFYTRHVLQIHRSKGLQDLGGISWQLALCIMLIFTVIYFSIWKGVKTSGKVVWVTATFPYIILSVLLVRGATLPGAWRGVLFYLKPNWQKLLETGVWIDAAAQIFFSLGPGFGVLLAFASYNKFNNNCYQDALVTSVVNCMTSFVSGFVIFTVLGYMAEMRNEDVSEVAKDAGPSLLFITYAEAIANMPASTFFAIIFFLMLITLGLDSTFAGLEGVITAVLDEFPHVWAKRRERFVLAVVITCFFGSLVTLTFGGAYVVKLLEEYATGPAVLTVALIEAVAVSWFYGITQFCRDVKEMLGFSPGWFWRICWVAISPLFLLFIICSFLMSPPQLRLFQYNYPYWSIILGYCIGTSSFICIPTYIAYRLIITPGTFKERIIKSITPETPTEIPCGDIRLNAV
Sequence of Mu-type opioid receptor (Mus musculus) (P42866 whole entry): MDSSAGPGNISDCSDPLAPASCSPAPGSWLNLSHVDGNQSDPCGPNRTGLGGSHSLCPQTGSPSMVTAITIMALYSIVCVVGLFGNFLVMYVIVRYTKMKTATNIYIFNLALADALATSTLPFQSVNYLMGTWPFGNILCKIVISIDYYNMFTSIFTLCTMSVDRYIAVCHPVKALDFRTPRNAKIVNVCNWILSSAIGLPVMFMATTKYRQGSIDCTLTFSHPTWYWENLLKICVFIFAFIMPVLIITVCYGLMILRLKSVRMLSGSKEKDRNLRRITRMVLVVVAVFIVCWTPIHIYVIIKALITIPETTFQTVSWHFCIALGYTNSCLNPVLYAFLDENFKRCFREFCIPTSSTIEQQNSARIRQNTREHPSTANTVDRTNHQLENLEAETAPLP
Sequence of Mu-type opioid receptor (Mus musculus, UniProt P42866) (P42866 whole entry): as above

In the case of `CN1CC[C@]23c4c5ccc(O)c4O[C@H]2[C@@H](O)C=C[C@H]3[C@H]1C5`, the result in the test with Mus musculus [1] and in the test on Mus musculus [2] was Active.
On to `C/C=C1/CN2[C@H]3Cc4c([nH]c5ccccc45)[C@@H]2C[C@@H]1[C@]3(CO)C(=O)OC`, for which the Ki at Mu-type opioid receptor [3] came out at 0.32 µM; in test [4] it was 14.2 µM; in test [5] it was 15 µM. Further, the IC50 on Mu-type opioid receptor [6] worked out at 3.14 µM; in test [7] (read-out: IC50), 15.4 µM. Besides, the result in the test with Mus musculus [8] was inactive. For the same compound, the outcome in the test on Mus musculus [9] and in the test on Mus musculus [10] was Active. The Activity was 94% in test [11] and 90% in [12].
Regarding `C/C=C1/CN2CC[C@]34C(=C(C(=O)OC)[C@H]1C[C@H]23)Nc1ccccc14` [AKUAMMICINE], the inhibition entry (at D(1B) dopamine receptor [13]; in test [16]; in test [17]; at Mu-type opioid receptor [18] (filed as agonist)) was “Active” in each case. Besides, the inhibition in test [14] and in test [15] was less than 60% throughout. The inhibitory constant (Ki) on D(1B) dopamine receptor [19] was more than 10 µM; at Mu-type opioid receptor [3], 3.31 µM; in test [4], 0.089 µM; in [5], 23.2 µM. The IC50 is 8.24 µM on Mu-type opioid receptor [6], 0.24 µM in test [20], 12.4 µM in [7] (read-out: IC50) and 12.6 µM in [7] (read-out: pIC50 (converted)). In addition, the EC50 in test [21] is 39.8 µM. The Activity in test [11] was determined as 45%; in test [22], 84%; in [12], 60%; in test [23] (filed as agonist) it was 50%.
Regarding `C/C=C1/CN2CC[C@@]34c5ccccc5N(C)[C@]35OC[C@@]4(C(=O)OC)[C@H]1C[C@H]25`, the inhibition entry on D(1B) dopamine receptor [13] was “Active”. Also, the inhibition in [14] and in test [15] was less than 60% in each case. In addition, the Ki on D(1B) dopamine receptor [19] was more than 10 µM; in test [5], 8.37 µM. In addition, the IC50 is 6.46 µM in [20] and 95.6 µM in test [7] (read-out: IC50).
With `C/C=C1/CN2[C@@H]3C[C@@]45c6ccccc6N[C@]4(O3)[C@@H]2C[C@@H]1[C@@]5(COC(C)=O)C(=O)OC`, the inhibition result (at D(1B) dopamine receptor [13]; in test [16]; in test [17]) was “Active” in each case. Moreover, the inhibition in [14] and in test [15] was less than 60% throughout. Further, on Mu-type opioid receptor [18], the inhibition entry was “inactive”. In addition, the Ki on D(1B) dopamine receptor [19] is more than 10 µM; at Mu-type opioid receptor [3], 132 µM; in test [4], 2.38 µM; in [5] it was 98.8 µM. Besides, the IC50 on Mu-type opioid receptor [6] was found to be 45 µM; in [20], 1.97 µM. In test [22], the Activity was found to be 92%.
`C/C=C1/CN2CC[C@@]34c5cc(O)ccc5N(C)[C@]35OC[C@@]4(C(=O)OC)[C@H]1C[C@H]25`: the inhibition result on D(1B) dopamine receptor [13] is “Active”. Moreover, the inhibition in test [14] and in [15] was less than 60% each time. The Ki at D(1B) dopamine receptor [19] was more than 10 µM; in test [5], 10.4 µM. In addition, the IC50 in test [20] came out at 0.073 µM; in test [7] (read-out: IC50) it was 20.3 µM.
As to `C/C=C1/CN2CC[C@]34C(=Nc5ccccc53)[C@@H]2C[C@@H]1[C@@]4(COC(C)=O)C(=O)OC`, the inhibition result (at D(1B) dopamine receptor [13]; in test [16]; in test [17]) was “Active” throughout. Moreover, the inhibition in test [14] and in test [15] was less than 60% throughout. Moreover, the inhibition entry on Mu-type opioid receptor [18] is “inactive”. Moreover, the Ki on D(1B) dopamine receptor [19] was more than 10 µM; on Mu-type opioid receptor [3], 30.7 µM; in test [4] it was 1.11 µM; in [5], 60.3 µM. Besides, the IC50 on Mu-type opioid receptor [6] stood at 18.7 µM; in [20], 2.71 µM; in test [7] (read-out: IC50) it was 24.4 µM. The Activity in [11] amounted to 50%; in test [22], 92%; in [12], 90%; in test [23], 30%.
